Measured values as given in PubChem BioAssay (NCI).
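1) Cells in 96-well plates. 2) Compound, 48 h, 5 concentrations. 3) Linear interpolation between surrounding doses. 4) Unreached endpoint = highest concentration. The concentration for 50% growth inhibition is given as GI50. TGI denotes the concentration required for complete inhibition of growth.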

Columns and labels:
Test in all cases: NCI anticancer screen, dose series, 48 h
[1] = tested on: U251 CNS
[2] = tested on: HCT-116 colon
[3] = tested on: HCT-15 colon
[4] = tested on: T-47D breast
[5] = tested on: SK-MEL-28 melanoma
[6] = tested on: NCI/ADR-RES ovarian
[7] = tested on: PC-3 prostate
[8] = tested on: HCC-2998 colon
[9] = tested on: OVCAR-8 ovarian
[10] = tested on: HS 578T breast

Structure (SMILES)	GI50 [1] [nM]	TGI [1] [µM]	GI50 [2] [nM]	TGI [2] [µM]	GI50 [3] [nM]	TGI [3] [µM]	GI50 [4] [nM]	TGI [4] [µM]	GI50 [5] [µM]	TGI [5] [µM]	GI50 [6] [nM]	TGI [6] [µM]	GI50 [7] [nM]	TGI [7] [µM]	GI50 [8] [µM]	TGI [8] [µM]	GI50 [9] [µM]	TGI [9] [µM]	GI50 [10] [nM]	TGI [10] [µM]
CC(C)Nc1ncc2cc(Oc3ccc(F)cc3F)c(=O)n(C)c2n1	> 25000	> 25	> 25000	> 25	> 25000	> 25	> 25000	> 25	> 25	> 25	> 25000	> 25	> 25000	> 25	> 25	> 25	> 25	> 25	11600	> 25
CCOC(=O)Nc1nc2c(C)cccc2s1	77500	> 100	45300	> 100	44300	> 100	47400	> 100	> 100	> 100	38900	> 100	48900	> 100	64.7	> 100	52.8	> 100	36100	> 100
CN(C)CCCn1c2nc(=O)[nH]c(=O)c-2nc2cc(Cl)c(Cl)cc21	3080	10.5	418	6.71	4030	21.5	1760	5.86	18.9	34	7900	> 100	2670	8.8	12.5	27.9	3.16	10.6	30900	> 100
Cc1[nH]nc2c1N=C(c1ccccc1Cl)c1cc([N+](=O)[O-])ccc1N2	511	> 25	337	> 25	198	> 25	> 25000	> 25	> 25	> 25	728	> 25	233	> 25	14.6	> 25	> 25	> 25	223	> 25
CCOC(=O)c1cc(C(=O)c2cc(OC)c(OC)c(OC)c2)n2ccccc12	89.9	38.6	35.3	> 100	56.5	> 100	1140	> 100	6.09	> 100	52.3	2.75	105	> 100	0.37	> 100	0.259	> 100	123	46.6
NC(CC1=CCC=CC1)C(=O)O (stereo unspecified)		> 100		> 100		> 100		> 100		> 100				> 100		> 100		> 100		> 100
CCNCCCn1c2c(c3ccc([N+](=O)[O-])cc3c1=O)C(=O)c1cc(OC)cnc1-2	32.9	0.186			184	1.26	36	12	0.227	1.56	55.9	0.689	249	8.67	0.151	0.66	0.0519	0.479	1050	4.33
Cc1cc(=O)oc2cc(OS(C)(=O)=O)ccc12		> 100		> 100		> 100		> 100		> 100		> 100		> 100		> 100		> 100		> 100
O=C(O)C1CCCCC1c1c2ccc(=O)cc-2oc2cc(O)ccc12 (stereo unspecified)		96.9		> 100		> 100		54.4		> 100		> 100		> 100		> 100		90.8		96.7
O=C(COc1cccc(/C=C2\CSc3ccccc3C2=O)c1)c1ccc(Cl)cc1	1420	2.72	689	1.95	1920	5.37	2150	5.43	1.78	3.46	2660	7.33	2010	5.25	1.47	2.8	2.53	6.81	2740	17.2
CC(C)c1ccc(NC(=S)NC(=O)c2ccccc2)cc1		80.1		39.3		40.7		77.2		48.3		> 100		> 100		39.4		> 100		> 100
CN1CCN(c2ccc(C(=O)Nc3cc(-c4cccc(NS(=O)(=O)c5ccccc5)c4)[nH]n3)cc2)CC1	2870	18.7	4680	17.4	12300	39.2	3800	18.6	11.4	27	> 100000	> 100	10200	33.2	11.2	24.3	13.4	32.3	1700	10.4
CC(=O)OC1Oc2ccccc2-c2oc(=O)c(-c3cc4ccccc4oc3=O)cc21 (stereo unspecified)	14700	28.3			22300	> 100	21300	51.8	32.7	87.3	22500	51.3	29100	> 100	57.7	> 100	17.8	36.7	30000	89.2
Cc1cc2cn3c4cccnc4[nH]c(=O)c3c2cc1C			1450	2.76	1410	2.87	1840	4	1.53	2.95	1390	2.96	1420	2.89	1.5	2.92			1850	4.38
